Laboratory results taken from article PMC9305538 (Chembiochem, 2022).
Read-outs that look alike come from different tables or passages of the source.

What was measured:
FDHC23S+AzoRo [1] = conditions: 1 mM NAD+; 50 mM phosphate pH 7; 25 °C; apparent; FDH part
FDHC23S+AzoRo [2] = conditions: 150 μM NADH; 50 μM FMN; 50 mM phosphate pH 7; 25 °C; apparent; AzoRo part
FDHC23S+AzoRo [3] = conditions: 150 μM NADH; 50 μM FMN; 50 mM phosphate pH 7; 25 °C; apparent; AzoRo part; remark: listed apart in the source

O=CO [Formate]
Km (FDHC23S+AzoRo [1]): 48900 ± 4880 µM

CN(C)c1ccc(/N=N/c2ccccc2C(=O)O)cc1 [compound 1, methyl red]
Km (FDHC23S+AzoRo [2]): 73.9 ± 47.5 µM

CC(=O)Nc1ccc(S(=O)(=O)O)c2cc(S(=O)(=O)O)c(N=Nc3ccc(N=Nc4ccc(S(=O)(=O)O)cc4)c4ccc(S(=O)(=O)O)cc34)c(O)c12 [compound 5, Brilliant Black BN]
Km (FDHC23S+AzoRo [3]): 6.01 ± 1.39 µM
